From patent US20210205292A1, “INHIBITORS OF CREB-CBP INTERACTION FOR TREATMENT OF LEUKEMIA” (The Board of Trustees of the Leland Stanford Junior …, priority 2016, published 2021)

Experiments:
[1] = test system: Cyclin A1, Cyclin D1, Fra-1, RFC-3; test: Expression of CREB-regulated cell cycle genes; format: cell-based
Method: Cyclin A1 and D1 expression was decreased following 12 hours of treatment, while Fra-1 and RFC-3 expression decreased following 48 hours of treatment.
Mol Cell Biol. 2004; 24(11):4696-709) (FIG. 6, panel C). […] Levels of RFC-3 also decrease following Compound A treatment (FIG. 6, panel C).

[2] = test system: normal bone marrow progenitor cells; test: Methylcellulose hematopoietic cell colony assay; format: cell-based, human; details: up to 10 mM, colonies counted on day 14
Method: Human bone marrow cells from non-leukemic patients were resuspended in a volume of 0.3 mL of IMDM with 20% FBS at 5×10^5 cells/mL and mixed with varying concentrations of the Compound A (10 pM to 10 mM in 0.1% DMSO) or 0.1% DMSO control. This was added to 3 mL of methylcellulose-containing growth factors IL-3, IL-6, G-CSF, erythropoietin, SCF (Methocult GF-H4434; Stem Cell Technology) and plated. The colonies were observed daily and counted on day 14.

[3] = test system: CREB-bound genes in KG-1 cells; test: RNA-Seq of KG-1 cells; format: cell-based
Method: For Chip-Seq experiments, KG-1 cells were treated with 5 μM Compound A or DMSO for 6 hours. Cells were cross-linked with 1% formaldehyde at room temperature for 10 min and then incubated with […] for 5 min. After cross-linking, chromatin was digested by Micrococcal nuclease and then sonicated using SimpleChIP® Plus Enzymatic Chromatin IP Kit (Cell Signaling, Danvers, Mass.) following the manufacturer's protocol. Chromatin immunoprecipitations were carried out with anti-CREB antibody (Millipore, Billerica, Mass.) or a control IgG (Santa Cruz Biotechnology). The captured immunocomplexes containing bound transcriptional DNA fragments were eluted, with recovered DNA fragments used for PCR amplification. For RNA-Seq experiments, KG-1 cells were treated with Compound A (5 μM) or 0.1% DMSO for 12 hours. RNA was prepared using the Aurum Total RNA Mini Kit (Bio-Rad). Sample libraries were run using the Illumina sequencing platform. Two hundred million reads were collected on two biological replicates of the experiment. Libraries were prepared using the Illumina Truseq RNA samples prep kit per manufacturer's instructions. Fastq files were aligned using TopHat. Aligned BAM files were used for CuffDiff calculation of differentially expressed genes. CummeRbund R package was used to infer QC of the RNA-seq (GEO Submission GSE74928) [NCBI tracking system #17594369]. ChIP-seq analysis was performed. BETA analysis was used by inferring differentially expressed genes between DMSO and Compound A treated cells based on a fdr≤0.01 and gene distance of 100 kb (Galaxy/cistrome). DNA sequences enriched on ChIP-Seq were defined.
To determine the functional specificity and downstream effects of Compound A in AML, the CREB transcriptome was first defined in KG-1 cells using CREB chromatin immunoprecipitation followed by high-throughput sequencing (CREB ChIP-Se). […] In this way, the ‘on-target’ effects of Compound A could be assessed.

[4] = test system: primary AML patient bone marrow samples; test: Primary AML patient bone marrow samples, Trypan blue exclusion assay; format: cell-based, human; details: 2 μM, 72 hours
Method: AML cell lines were purchased from ATCC and maintained with IMDM (Gibco) supplemented with 10% FBS (Fisher Scientific) and 1% PSG (Gibco). Cells were plated at a density of 2-4×10^5 cells/ml, and treated with various doses of Compound A in 0.1% DMSO or 0.1% DMSO alone. Cell counts and viability were determined using the Vi-CELL XR Cell Viability Analyzer (Beckman Coulter). HL-60 and KG-1 cells overexpressing CREB or CBP were generated using lentiviral gene delivery with subsequent puromycin selection and FACs sorting for GFP. CREB knockdown was achieved by infecting cells with a lentivirus expressing the shRNA sequence 5′-[…]-3′ (SEQ ID NO:). For chemotherapy combination experiments, combination index values were calculated using median effects analysis on Calcusyn software. Human patient bone marrow samples were cultured in DMEM plus 20% FBS and 1×PSG, supplemented with recombinant GM-CSF (20 ng/ml), G-CSF (20 ng/ml), SCF (50 ng/ml), IL-3 (20 ng/ml), and IL-6 (10 ng/ml). Cells were plated at a concentration of 1×10^5 cells/ml in a 12-well plate. Vehicle (0.1% DMSO) or Compound A (2 μM) was added for up to 72 hours. All samples contained >85% AML blasts and were not sorted prior to performing experiments. […] Single cell suspensions of bone marrow culture were subsequently analyzed on a D×P10 flow cytometer (Cytek). […]

HL-60 cells = test: HL-60 viability, combination of Compound A with kinase inhibitors; format: cell-based, human; details: 48 hours
[5] = Plasma pharmacokinetics in NSG mice, quantitative mass spectrometry; format: in vivo; details: mouse, ip, 20 mg/kg/day, 20 mg/kg/day IP
Method: FIG. 10, panels A-D, illustrates the non-toxicity and pharmacodynamics of compound Compound A. Panel A) Human AML patient sample cells (#186) were injected (2×10^6 cells) into 8 NSG mice, and mice were then treated with intravenous 0.1% DMSO or 2.3 mg/kg Compound A IV once daily. […] Compound A plasma concentration was measured by quantitative mass spectrometry. […] Panel C). […] Numbers shown are averages of values from 3 mice SE.
To assess the potential in vivo toxicities of Compound A, four groups of five mice not injected with AML cells were treated with 2.3 mg/kg Compound A intravenously daily, or 20, 40 or 60 mg/kg intraperitoneally (IP) daily for 28 days.

## N#Cc1ccc(NC(=O)c2cc3ccccc3cc2O)cc1 [Compound A, N-(4-cyanophenyl)-3-hydroxy-2-naphthamide]
[1]; 12 hours of treatment
  Cyclin A1 and D1 expression: decreased
[1]; 48 hours of treatment
  Fra-1 and RFC-3 expression: decreased
[2]
  colony formation: no significant decrease in colony formation
[3]; 5 μM, 12 hours
  number of CREB-bound genes with greater than 50% reduced expression: 602
[3]; 5 μM, 12 hours, of 4680 CREB-bound sites
  number of CREB-bound genes with reduced expression: 2787
[3]; KG-1 cells, RNA-Seq
  target gene expression of other CBP-binding transcription factors (Rel, RelA, RelB, Foxo3, Foxo1, Myb): no significant change
[4]
  decreased viable cell count: a range of responsiveness
HL-60 cells; Compound A alone
  viability: 87.4±7.3%
HL-60 cells; Compound A combined with ERK inhibitor
  viability: 55.3±3.4%
HL-60 cells; Compound A combined with RSK inhibitor
  viability: 49.5±2.3%
[5]
  half-life: 4.3 h
